Experiment: Comparison of water solubilities at 20° C.
Format: physicochemical
Protocol: Comparison of Water Solubilities at 20° C.

Compound | Water solubility [µg/mL]
O=P1([O-])CCCC1.O=P1([O-])CCCC1.O=P1([O-])CCCC1.[Al+3] [PHOLAL, Aluminum salt of 1-hydroxy-1H-phospholane 1-oxide] | 4300
CCP(C)(=O)[O-].CCP(C)(=O)[O-].CCP(C)(=O)[O-].[Al+3] [MEPAL, Aluminum salt of methylethylphosphinic acid] | 6300

— patent publication US6509401B1, “Synergistic flame retardant combination of salts of 1-hydroxy-dihydrophosphole oxides and/or 1-hydroxyphospholane oxides and nitrogen compounds for use in polymers” (Clariant GmbH, priority 1997, dated 2003)
